# Results from publication PMC7382501 (Nature Communications, 2020).
# Tests used:
# Mtb FasR = conditions: ref Mondino et al Mol Microbiol 2013 89:372; cited from earlier work
# FasRwt = FasRwt (Mycobacterium tuberculosis, UniProt O05858)
# Sequence of FasRwt (O05858 whole entry): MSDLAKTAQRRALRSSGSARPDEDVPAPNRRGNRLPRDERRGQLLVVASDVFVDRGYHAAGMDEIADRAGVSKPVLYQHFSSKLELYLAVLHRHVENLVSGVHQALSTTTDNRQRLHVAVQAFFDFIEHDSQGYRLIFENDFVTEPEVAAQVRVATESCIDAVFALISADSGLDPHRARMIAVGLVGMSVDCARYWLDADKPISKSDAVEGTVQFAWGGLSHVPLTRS
Structure (SMILES),triggering of DNA-dissociation (Mtb FasR),"k, exponential decay rate of full-length FasR under trypsin proteolysis (FasRwt)"
"CCCCCCCCCCCCCC(=O)O [C14, myristic acid]",ineffective at triggering DNA-dissociation,
"CCCCCCCCCCCCCCCCCCCC(=O)SCCNC(=O)CCNC(=O)[C@H](O)C(C)(C)COP(=O)(O)OP(=O)(O)OC[C@H]1O[C@@H](n2cnc3c(N)ncnc32)[C@H](O)[C@@H]1OP(=O)(O)O [C20-CoA, arachidoyl-CoA]",,0.11
